Here are results for one substance from patent publication US8492510B2, “Multifunctional degradable nanoparticles with control over size and functionalities” (Vanderbilt University, priority 2007, dated 2013).

This assay relates to human microvascular endothelial cells (HMEC). The experiment in a line: Internalization into HMEC, temperature effect and control experiments (confocal microscopy). In kind it is cell-based. The note with it: 10 uM, 60 min, 37° C. As to the method: The human microvascular endothelial cells (HMEC) cells were incubated with conjugates (10 uM) for 2.5 min at 4° C. or at 37° C.
The HMEC cells were incubated with conjugates (1 uM) for 30 min at 4° C. or at 37° C.
(b) The HMEC cells were incubated with Boc-protected guanidinylated FD-2 (10 uM) for 60 min at 37° C.
Internalization of FD-1 and FD-2 in mammalian cells was assessed using two different cell lines and a previously described method [Futaki, S.; Nakase, I.; Suzuki, T.; Youjun, Y.; Sugiura, Y. Biochemistry 2002, 41, 7925.] with NIH-3T3 fibroblasts and HMEC (human microvascular endothelial cells) and a Zeiss LSM 510 confocal microscope. […] [Futaki, S.; Nakase, I.; Suzuki, T.; Youjun, Y.; Sugiura, Y. Biochemistry 2002, 41, 7925; Vivès, E.; Brodin, P.; Lebleu, B. J. Biol. Chem. 1997, 272, 16010.] Furthermore, the extent of internalization increased in an incubation time-dependent manner, and it was observed that after just 10 min, the fluorescence intensity of cells treated with FD-2 was near saturation. […] L. Org. Lett. 2005, 7, 4815.] but also regulate the subcellular localization of the molecule and its putative cargo. […] Therefore, the dendrimer with a hexyl spacer crosses the cell membrane faster than the molecule with an ethyl chain. On the other hand, the localization patterns can also be controlled by the length of the spacer. […]

With fluorescein isothiocyanate [free FITC], the “fluorescence of cells in control experiments” value is recorded as “no”.
